In patent publication US20250082705A1, “COMPOSITION FOR IMPROVING, PREVENTING, OR TREATING SLEEP DISORDERS COMPRISING DENDROPANAX MORBIFERA EXTRACTS” (JEJU PANATEK Co., Ltd., priority 2023, published 2025):

Assays:
[1] = ABTS radical scavenging assay; assay type: biochemical; conditions: mean ± standard deviation
Description: (§1) The antioxidant activity of the Dendropanax morbifera ethanol extract was analyzed using an ABTS (2,2′-azino-bis (3-ethylbenzothiazoline-6-sulfonic acid)) assay and a DPPH (1,1-diphenyl-2-picrylhydrazyl) assay. As the experimental result, the concentration of a sample that appeared when the absorbance decreased by 50% was represented as IC50, and ascorbic acid was used as a standard material.
Specifically, in the ABTS method, the ABTS solution was mixed with the extract at a ratio of 20:1 and the absorbance was measured. Light was blocked at room temperature and the results were confirmed at 414 nm after 60 minutes of reaction. The ABTS solution was obtained by dissolving 7.4 mM ABTS and 2.6 mM potassium persulfate in distilled water and stored at 4° C. for 1 day, and adjusted so that a blank value was 1.4 to 1.5.

[2] = DPPH radical scavenging assay; assay type: biochemical; conditions: mean ± standard deviation
Description: as §1
In the DPPH method, the absorbance was measured by mixing a
DPPH·methanol solution with the sample in a 1:1 ratio. Light was blocked at room temperature and the results were confirmed at 520 nm after 5 minutes of reaction. The DPPH·methanol solution was adjusted so that the blank value was 1.7 to 1.8.

## O=C1O[C@H]([C@@H](O)CO)C(O)=C1O [Ascorbic acid]
[1]
  ABTS IC50: 71 ± 2 µg/mL
[2]
  DPPH IC50: 25 ± 1 µg/mL
